The target in assay [1] is T1, 5-hydroxytryptamine receptor 1B (Homo sapiens, UniProt P28222). The settings on record: Oryctolagus cuniculus; Saphenous vein.
Description: 5-hydroxytryptamine 1B receptor agonist potency determined in rabbit saphenous vein contraction model
The target in assay [2] is 5-hydroxytryptamine receptor 1D (Homo sapiens, UniProt P28221). The assay is described as follows: In vitro binding affinity was determined towards cloned human 5-hydroxytryptamine 1D receptor using [3H]5-CT radioligand.
Assay [3] has as its target T1, 5-hydroxytryptamine receptor 1B. Kind of assay: 5-HT1B agonist potency was evaluated as effective dose that induced hypothermia in the guinea-pig upon intraperitoneal administration. Type of assay: functional, organism-based. The note with it: Cavia porcellus; target entry is the homologue from another species.
Assay [4] shares this target. Kind of assay: Effective concentration determined by measuring inhibition of forskolin-stimulated c-AMP formation at 5-hydroxytryptamine 1B receptor stably transfected in CHO cell lines. Type of assay: functional, cell-based.
Assay [5] shares this target. The assay is described as follows: In vitro binding affinity was determined towards cloned human 5-hydroxytryptamine 1B receptor using [3H]5-CT radioligand.
For assay [6] the target is unchanged. The assay is described as follows: 5-hydroxytryptamine 1B receptor agonist potency was evaluated as effective dose that induced hypothermia in the guinea-pig upon intraperitoneal administration. It is filed as functional, organism-based. The note with it: Cavia porcellus; target entry is the homologue from another species.
The target in assay [7] is T2, 5-hydroxytryptamine receptor 1A (Homo sapiens, UniProt P08908).
T2 sequence (P08908 whole entry): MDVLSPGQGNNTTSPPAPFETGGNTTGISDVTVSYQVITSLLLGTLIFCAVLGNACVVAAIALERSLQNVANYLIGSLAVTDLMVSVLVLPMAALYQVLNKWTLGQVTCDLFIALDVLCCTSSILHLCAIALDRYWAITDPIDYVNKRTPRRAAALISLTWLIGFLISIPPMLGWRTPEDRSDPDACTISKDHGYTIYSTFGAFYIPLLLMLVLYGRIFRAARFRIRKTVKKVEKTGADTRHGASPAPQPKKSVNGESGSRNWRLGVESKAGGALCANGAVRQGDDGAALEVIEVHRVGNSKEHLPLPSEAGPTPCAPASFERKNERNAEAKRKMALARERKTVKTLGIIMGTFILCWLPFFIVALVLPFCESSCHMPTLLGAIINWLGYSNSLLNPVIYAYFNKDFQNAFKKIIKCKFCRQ
The assay is described as follows: In vitro binding affinity was determined towards cloned human 5-hydroxytryptamine 1A receptor using [3H]8-OH-DPAT radioligand.

T1 sequence (P28222 whole entry): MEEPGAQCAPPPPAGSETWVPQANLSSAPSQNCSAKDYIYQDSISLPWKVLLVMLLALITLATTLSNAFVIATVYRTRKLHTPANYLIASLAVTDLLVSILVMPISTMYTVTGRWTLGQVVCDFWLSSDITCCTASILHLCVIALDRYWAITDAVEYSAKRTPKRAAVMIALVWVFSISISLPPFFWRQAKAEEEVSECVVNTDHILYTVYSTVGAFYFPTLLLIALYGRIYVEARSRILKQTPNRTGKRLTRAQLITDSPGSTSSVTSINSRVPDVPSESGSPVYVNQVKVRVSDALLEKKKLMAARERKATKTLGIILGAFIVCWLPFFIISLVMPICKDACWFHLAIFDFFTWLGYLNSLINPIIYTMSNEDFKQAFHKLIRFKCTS
Sequence of 5-hydroxytryptamine receptor 1D (P28221 whole entry): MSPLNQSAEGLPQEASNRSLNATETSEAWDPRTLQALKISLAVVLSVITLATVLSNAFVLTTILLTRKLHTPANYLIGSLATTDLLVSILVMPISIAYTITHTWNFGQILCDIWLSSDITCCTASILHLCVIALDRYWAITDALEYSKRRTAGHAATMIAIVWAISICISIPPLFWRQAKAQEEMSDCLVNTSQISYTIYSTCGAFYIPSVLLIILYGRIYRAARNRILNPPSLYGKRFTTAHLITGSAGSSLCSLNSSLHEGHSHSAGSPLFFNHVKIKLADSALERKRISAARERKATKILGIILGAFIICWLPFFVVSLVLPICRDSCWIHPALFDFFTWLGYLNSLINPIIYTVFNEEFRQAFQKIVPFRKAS

What is called Ki is a measure of affinity in units of concentration, obtained from inhibition or displacement. For orientation: ED50 means the midpoint of the dose-response relation. A low value points to an effect at a small dose. For orientation: EC50 means the concentration needed to bring the measured effect to its halfway point. High values mean a need for much substance, low ones an effect from little substance. In assay [1], `CN(C)CCc1c[nH]c2ccc(C[C@H]3COC(=O)N3)cc12` [ZOLMITRIPTAN] yielded a pD2 of 6.2. Further, the Ki in assay [2] came out at 760 pM; in assay [5], 4200 pM. Also, in assay [3], the ED50 is 3.2 mg/kg. Also, the EC50 in assay [4] was 15700 pM.
In assay [1], `CN(C)CCc1c[nH]c2ccc(CS(=O)(=O)N(C)Cc3ccc(CN(C)S(=O)(=O)Cc4ccc5[nH]cc(CCN(C)C)c5c4)cc3)cc12` showed a pD2 of 6.6. Also, the Ki in assay [2] is 890 pM; in assay [5], 640 pM; in assay [7], 17700 pM. Moreover, the EC50 in assay [4] was 580 pM. It took a dose of 1.3 mg/kg to reach the 50% effect level in assay [6] (ED50).

(Values after ChEMBL document CHEMBL1131654 (Bioorg Med Chem Lett, 1998).)
